Measurements: patent publication US6069167A, “Use of antioxidant agents to treat cholestatic liver disease” (priority 1997, dated 2000)
Read-outs that look alike come from different tables or passages of the source.

Experiments:
TCDC hepatic toxicity = type: in vivo, male Sprague-Dawley rats
From the text: Young adult male Sprague-Dawley rats (150-180 gram weight) purchased from Sasco, Inc. (Omaha, Nebr.) were fed Purina Lab Chow (Ralston Purina Co., Chicago, Ill.) ad libitum for 2-3 weeks and housed in polyethylene cages with stainless steel tops on a 12-hour light-dark cycle. All rats received humane care in compliance with the guidelines of the Animal Use in Research Committee of the University of Colorado Health Sciences Center. […] TCDC is a conjugate of the bile acid most implicated in cholestatic liver injury9,11,12. TCDC was solubilized in 5% dextrose, 10% BSA, and 0.45% normal saline. TCDC was administered while rats were under light methoxyflurane anesthesia as an intravenous bolus of the desired dose in 1 to 2 minutes through the tail vein. TCDC dosing was performed between 7 and 9 am. […] Rats were divided into two treatment groups. One group was pretreated with parenteral Vitamin E (all-rac-alpha tocopherol, […], Hoffmann-LaRoche,Nutley, N.J.). The other group was not pretreated. These rats then received either vehicle or TCDC (10 μmol/[…]) by tail vein injection (as described in Example 1). […] All i.p. injections were administered under light methoxyflurane anesthesia. Following the vitamin E or saline injections, rats were randomly assigned to receive a tail vein bolus injection of either TCDC or vehicle. Rats were sacrificed four hours later and serum was analyzed for AST, ALT, total bilirubin and alkaline phosphatase. […] The serum alpha tocopherol:total lipids ratio (mg/gm) was calculated as an additional index of vitamin E status^41.

hepatic mitochondria = assay: Lipid-conjugated dienes of hepatic mitochondria (lipid peroxidation); type: in vivo, male Sprague-Dawley rats; details: for Lipid-conjugated dienes: 4 h
Protocol: Hepatic Mitochondria Isolation
Mitochondria were isolated from 10 grams of fresh liver from individual rats by a modification of a previously described method^27. Briefly, the liver was gently homogenized in a loose-fitting Potter-Elvehjm homogenizer in buffer containing 225 mM mannitol, 70 mM sucrose, 3 mM KH2 PO4, 2mM EDTA, 0.1% BSA, 5 mM MgCl2 (pH 7.0), filtered through cheesecloth and centrifuged at 400g×10 minutes. The supernatant was centrifuged at 10,000g for 10 minutes. The supernatant was aspirated and the pellet resuspended and centrifuged at 10,000g for 10 minutes. The resulting mitochondrial pellet was resuspended in 15 ml of buffer, divided into three tubes and added to digitonin (Sigma Chemical Company, St Louis, Mo., 0.29 mg for each gram of original liver) on wet ice×20 minutes, in order to minimize any contamination by lysosomes^28. The resulting mitochondrial preparation was washed two times in the original buffer and centrifuged at 10,000g for 10 minutes. Samples of the pellet were taken for enzyme marker analysis. Two more washes were then performed using a buffer containing 50 mM MOPS/100 mM KCI, yielding the final mitochondrial pellet.
Fresh mitochondria were analyzed for lipid peroxidation as an index of oxidant damage by the lipid-conjugated diene method of Recknagel and Ghoshal^35 with the modification of Bacon et al^36. Briefly, lipids were extracted from mitochondria pellets with chloroform and methanol (2:1, vol/vol), and the lipid in chloroform was dried under a stream of oxygen-free nitrogen^27. The dried lipid was redissolved in 1.5 ml of spectrophotometric grade cyclohexane. Absorbance from 220 to 275 nm was recorded against a cyclohexane blank on a Lambda 2 UV/is Spectrometer (Perkin-Elmer Corp., Norwalk, Conn.). Lipid concentration was approximately 0.5 mg/mi of cyclohexane. After the UV measurements, a 250 μl aliquot from each sample was analyzed for total lipid content by the method of Chiang et al.^37, and absorbance measurements were normalized to a denominator of 1.0 mg lipid per ml of cyclohexane. Lipid peroxidation was estimated by calculating the difference in absorption at 233 nm (the peak absorbance for conjugated dienes) between each rat and the mean of the values from control rats.
Because serum AST and ALT concentrations peaked at 4 hours, further evaluation of liver injury was performed at that time point Total concentrations (conjugated+free bile acids) of individual bile acids were measured in serum obtained at 4 hours by gas chromatography-mass spectroscopy (GC-MS), as previously described^30. Briefly, after serum samples were extracted with the addition of the internal standard 7-alpha, 12-alpha, dihydroxy-5 beta cholanic acid, trimethylsilyl esterification was performed. Individual bile acids were then quantified by GC or GC-MS using a Hewlett-Packard 5790 flame ionization detector equipped with a 30 meter DB-1 capillary column with internal diameter of 0.25 mm and a film thickness of 0.25 micrometers (J & W Scientific, Folsom, Calif.). For GC-MS measurements, a Hewlett-Packard 5970-A mass selective detector operating in selective ion monitoring mode was used. Results were expressed as μmol/L for each individual bile acid.
Rats were divided into two treatment groups. One group was pretreated with parenteral Vitamin E (all-rac-alpha tocopherol, Ephynal, Hoffmann-LaRoche,Nutley, N.J.). The other group was not pretreated. […]

in vivo = assay: in vivo; set-up: species or system male Sprague-Dawley rats; details: rat
Protocol: Rats were divided into two treatment groups. One group was pretreated with parenteral Vitamin E (all-rac-alpha tocopherol, […], Hoffmann-LaRoche,Nutley, N.J.). The other group was not pretreated. These rats then received either vehicle or TCDC (10 μmol/[…]) by tail vein injection (as described in Example 1). […] All i.p. injections were administered under light methoxyflurane anesthesia. Following the vitamin E or saline injections, rats were randomly assigned to receive a tail vein bolus injection of either TCDC or vehicle. Rats were sacrificed four hours later and serum was analyzed for AST, ALT, total bilirubin and alkaline phosphatase. […] The serum alpha tocopherol:total lipids ratio (mg/gm) was calculated as an additional index of vitamin E status^41. The liver was rapidly removed at sacrifice, the hepatic mitochondria were isolated as set forth above and analyzed for lipid-conjugated dienes as described above. A specimen of liver was also immediately frozen, protected from light and stored at -70° C. and subsequently analyzed for alpha tocopherol and reduced ubiquinol-9 by HPLC with electrochemical detection^42. The results were expressed as nmol alpha tocopherol or nmol reduced ubiquinol-9 per gram wet weight of liver.

cholestatic disorders = details: cited from earlier work
[1] = parenteral vitamin E pretreatment, rats receiving TCDC

Row | Hepatic alpha tocopherol concentrations, change (in vivo) | Serum vitamin E concentrations, change (in vivo) | Serum vitamin E:total lipid ratios, change (in vivo) | Serum alpha tocopherol (in vivo; 4 h) [µg/mL] | concentration at 4 h (in vivo; Serum alpha tocopherol) [ng/mL] | Structure (SMILES) | ALT (TCDC hepatic toxicity; Vitamin E/TCDC, n = 12, 4 h) [IU/L] | AST (TCDC hepatic toxicity; Vitamin E/TCDC, n = 12, 4 h) [IU/L] | Bilirubin (TCDC hepatic toxicity; Vitamin E/TCDC, n = 12, 4 h) [mg/dL] | Decrease in serum ALT (TCDC hepatic toxicity; [1]) | Decrease in serum AST (TCDC hepatic toxicity; [1]) | ALT (TCDC hepatic toxicity; rat, in vivo) [IU/L] | AST (TCDC hepatic toxicity; rat, in vivo) [IU/L] | Bilirubin (TCDC hepatic toxicity; rat, in vivo) [mg/dL] | Hepatic injury and mitochondrial lipid peroxidation, overall result (TCDC hepatic toxicity; vitamin E pretreatment, TCDC) | Lipid-conjugated dienes (hepatic mitochondria; Vitamin E/TCDC, n = 12) | Lipid-conjugated dienes (hepatic mitochondria; Vitamin E/Vehicle, n = 7) | Mitochondrial lipid-conjugated dienes, change (hepatic mitochondria; vitamin E pretreatment, i.v. TCDC group) | Hepatoprotective and choleretic effects (cholestatic disorders)
1 | significant increases | significant increases | significant increases | 13.2 ± 0.7 | 9900 ± 700 | Cc1c(C)c2c(c(C)c1O)CCC(C)(CCCC(C)CCCC(C)CCCC(C)C)O2 (racemic) [Vitamin E, all-rac-alpha tocopherol] | 325 ± 78 | 870 ± 278 | 0.2 ± 0.02 | approximately 70% | approximately 70% | 61 ± 5 | 81 ± 2 | 0.2 ± 0.02 | attenuated both the hepatic injury and the severity of mitochondrial lipid peroxidation | 0.13 ± 0.01 delta abs. 233 nm/mg lipid | -0.03 ± 0.02 delta abs. 233 nm/mg lipid | significant reduction | –
2 | – | – | – | – | – | C[C@H](CCC(=O)O)[C@H]1CC[C@H]2[C@@H]3[C@@H](O)C[C@@H]4C[C@H](O)CC[C@]4(C)[C@H]3CC[C@]12C [ursodeoxycholic acid] | – | – | – | – | – | – | – | – | – | – | – | – | hepatoprotective as well as choleretic effects
